# Experimental data from PubChem BioAssay (NCI).
#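 Assay format: 96-well plates, 48-hour exposure. GI50 = concentration required for 50% inhibition of growth. At the TGI there is no net growth.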
# What was measured:
# Test in all cases: inhibition of tumour cell growth, NCI panel, 48 h
# BT-549 breast = test system: BT-549 breast
# A498 renal = test system: A498 renal
# UACC-257 melanoma = test system: UACC-257 melanoma
# MDA-MB-435 = test system: MDA-MB-435
# KM12 colon = test system: KM12 colon
# HCT-116 colon = test system: HCT-116 colon
# 786-0 renal = test system: 786-0 renal
# NCI-H226 lung = test system: NCI-H226 lung
# NCI-H522 lung = test system: NCI-H522 lung
# K-562 leukemia = test system: K-562 leukemia
Structure (SMILES),GI50 (BT-549 breast) [µM],TGI (BT-549 breast) [µM],GI50 (A498 renal) [µM],TGI (A498 renal) [µM],GI50 (UACC-257 melanoma) [µM],TGI (UACC-257 melanoma) [µM],GI50 (MDA-MB-435) [µM],TGI (MDA-MB-435) [µM],GI50 (KM12 colon) [µM],GI50 (HCT-116 colon) [µM],TGI (HCT-116 colon) [µM],GI50 (786-0 renal) [µM],TGI (786-0 renal) [µM],GI50 (NCI-H226 lung) [µM],TGI (NCI-H226 lung) [µM],GI50 (NCI-H522 lung) [µM],TGI (NCI-H522 lung) [µM],GI50 (K-562 leukemia) [µM],TGI (K-562 leukemia) [µM],TGI (KM12 colon) [µM]
O=C1c2cccc3cccc(c23)C(=O)N1CCCCOc1ccc(-c2nc3ccc(N4CCOCC4)cc3[nH]2)cc1,1.49,3.15,3.38,20.2,5.06,27.9,2.04,4.54,2.88,1.76,3.32,1.28,2.68,25.6,47.6,15.1,41.2,3.25,9.47,
O=C1/C(=C/c2ccc(O)cc2)CCC1CNc1ccc(Cl)cc1 (stereo not drawn),,26.5,,28.4,,11.7,,17.3,,,5.77,,4.58,,25.8,,2.49,,10.2,8.45
O=C1NC(=NCCc2ccccc2Cl)S/C1=C\c1ccc2ncccc2c1,4.94,> 22,3.68,17.6,11.2,> 25,1.45,9.81,2.5,0.936,> 25,7.66,> 25,7.61,> 25,4.13,12.3,1.1,> 25,> 25
O=C(/C=N/O)c1c(-c2ccccc2)[nH]c(-c2ccccc2)c1-c1ccccc1,,11.3,,62.4,,35,,28.3,,,72.6,,> 100,,83.4,,30.8,,> 100,28.2
CCOc1ccc2c(c1)/C(=C\C=C\C1CC(C)C3CC(OCC)CCC3N1CC)CC(C)N2CC (stereo not drawn),0.906,2.46,0.378,1.83,0.795,2.15,0.905,2.31,0.673,0.789,2.17,1.49,2.98,1.06,2.79,0.852,3.08,0.685,2.62,1.92
Cc1nc2cc(O)c(O)cc2cc1Oc1ccc(NC(=O)Nc2ccc(Cl)c(Cl)c2)cc1,7.5,> 32.5,> 32.5,> 32.5,7.27,21.4,6.99,> 32.5,9.64,2.24,13.6,7.68,18.6,11.8,> 32.5,4.43,12.5,6.93,29.6,32
COC(=O)c1c(-c2ccccc2)csc1NC(=O)c1c(-c2ccccc2)noc1C,,> 100,> 100,> 100,> 82.9,> 100,1.2,> 100,0.802,0.379,> 100,1.34,> 100,1.56,> 100,1.56,> 26.3,0.409,> 100,> 100
COc1ccc(-n2c(N)c(C(=O)NCCN3CCOCC3)c3nc4ccccc4nc32)cc1OC,27.6,> 100,7.98,> 100,34.4,> 100,12.8,> 100,8.26,3.49,> 100,2.02,79.2,11.4,> 100,8.07,> 100,2.96,> 100,> 100
O=C(Nc1ccccc1Cl)c1ccc(NC2=C(Cl)C(=O)N(Cc3ccccc3)C2=O)cc1,43,> 100,> 100,> 100,38.8,> 100,48.4,> 100,32.7,21.4,47.5,24.8,57.3,32.5,92.3,17.9,38.8,21.8,49.3,> 100
COC(=O)c1ccc2c(c1)nc(-c1ccc(Cl)cc1)n2-c1cc(C(C)(C)C)[nH]n1,3.35,11.5,2.26,9.76,4.97,22.9,1.19,5,2.12,3.46,12.3,3.62,32,4.09,44,3.21,20.3,4.2,> 100,6.07
Cn1c(=O)c(Cc2ccc(F)cc2F)cc2cnc(NC3CCOCC3)nc21,> 16.6,> 25,12.3,> 25,> 25,> 25,> 25,> 25,> 25,> 25,> 25,> 25,> 25,> 21.1,> 25,> 25,> 25,> 20.1,> 25,> 25
